Target: T1, human HSD1 (recombinant HSD1) (Homo sapiens, UniProt P28845)
T1 construct: made in house
Assay: In vitro HSD1 activity inhibitory action, SPA of cortisone to cortisol conversion
Assay type: biochemical
Conditions: recombinant human HSD1 0.1 μg/ml, 500 μM NADPH, 16 nM 3H cortisone, room temperature 90 min, read-out: hHSD1 IC50
Summary of the method: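 Baculovirus-expressed recombinant HSD1 (0.1 μg/ml) with 500 μM NADPH and 16 nM ³H-cortisone in 0.1% BSA/PBS, 90 min at room temperature. Stopped with anti-cortisol antibody, SPA beads and carbenoxolone, read after overnight incubation. Inhibition scaled between DMSO (0%) and 50 μM carbenoxolone (100%); IC50 by curve fitting.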

T1 sequence (P28845 whole entry): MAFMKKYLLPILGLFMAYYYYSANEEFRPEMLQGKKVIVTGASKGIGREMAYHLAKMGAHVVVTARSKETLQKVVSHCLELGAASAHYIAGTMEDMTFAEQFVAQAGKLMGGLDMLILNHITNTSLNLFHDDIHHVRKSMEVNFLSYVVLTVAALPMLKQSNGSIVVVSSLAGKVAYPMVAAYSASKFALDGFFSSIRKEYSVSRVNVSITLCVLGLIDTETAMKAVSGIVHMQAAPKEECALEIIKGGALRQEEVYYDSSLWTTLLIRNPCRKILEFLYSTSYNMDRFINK

| SMILES | IC50 |
| --- | --- |
| CCn1c(-c2ccc(C(N)=O)cc2Cl)nnc1C1(c2ccccc2)CC1 [Ex. 1-158] | < 10 nM |
| CCn1c(-c2ccc(C(N)=O)cc2Cl)nnc1C1(c2ccc(F)cc2)CC1 [Ex. 1-159] | < 10 nM |
| CC(C)n1c(-c2cccc(C(N)=O)c2)nnc1C1(c2ccccc2)CC1 [Ex. 1-160] | < 10 nM |
| CC(C)n1c(-c2cccc(C(N)=O)c2)nnc1C1(c2ccc(F)cc2)CC1 [Ex. 1-161] | < 10 nM |
| Cn1c(N2CCC(c3ccccc3)CC2)nnc1C1(c2ccccc2)CC1 [Ex. 2-1, 1-[4-methyl-5-(1-phenylcyclopropyl)-4H-[1,2,4]triazol-3-yl]-4-phenylpiperidine] | < 10 nM |
| COC(=O)C1(c2ccccc2)CCN(c2nnc(C3(c4ccccc4)CC3)n2C)CC1 [Ex. 2-2] | 10 to 1000 nM |
| COC(=O)C1CCN(c2nnc(C3(c4ccccc4)CC3)n2C)CC1 [Ex. 2-4] | 10 to 1000 nM |
| Cn1c(N2CCC(C(=O)O)CC2)nnc1C1(c2ccccc2)CC1 [Ex. 2-5] | 10 to 1000 nM |
| Cn1c(N2CCC(CO)CC2)nnc1C1(c2ccccc2)CC1 [Ex. 2-6] | < 10 nM |
| Cn1c(N2CCC(NC(=O)OC(C)(C)C)CC2)nnc1C1(c2ccccc2)CC1 [Ex. 2-7] | 10 to 1000 nM |
| Cn1c(N2CCC(N)CC2)nnc1C1(c2ccccc2)CC1 [Ex. 2-8] | 10 to 1000 nM |
| CC(=O)NC1CCN(c2nnc(C3(c4ccccc4)CC3)n2C)CC1 [Ex. 2-9] | 10 to 1000 nM |
| Cn1c(N2CCC(NC(=O)c3ccc(Cl)cc3Cl)CC2)nnc1C1(c2ccccc2)CC1 [Ex. 2-10] | 10 to 1000 nM |
| CN(C(=O)OC(C)(C)C)C1CCN(c2nnc(C3(c4ccccc4)CC3)n2C)CC1 [Ex. 2-11] | 10 to 1000 nM |
| CNC1CCN(c2nnc(C3(c4ccccc4)CC3)n2C)CC1 [Ex. 2-12] | 10 to 1000 nM |
| CC(=O)N(C)C1CCN(c2nnc(C3(c4ccccc4)CC3)n2C)CC1 [Ex. 2-13] | 10 to 1000 nM |
| Cn1c(N2CCCCC2)nnc1C1(c2ccccc2)CC1 [Ex. 2-14] | < 10 nM |
| Cn1c(N2CCC(C(F)(F)F)CC2)nnc1C1(c2ccccc2)CC1 [Ex. 2-15] | < 10 nM |
| Cn1c(N2CCC(C(N)=O)CC2)nnc1C1(c2ccccc2)CC1 [Ex. 2-16] | < 10 nM |
| Cn1c(N2CCC(CO)(c3ccccc3)CC2)nnc1C1(c2ccccc2)CC1 [Ex. 2-17] | 10 to 1000 nM |
| CNC(=O)C1CCN(c2nnc(C3(c4ccccc4)CC3)n2C)CC1 [Ex. 2-18] | 10 to 1000 nM |
| CN(C)C(=O)C1CCN(c2nnc(C3(c4ccccc4)CC3)n2C)CC1 [Ex. 2-19] | 10 to 1000 nM |

| SMILES | IC50 |
| --- | --- |
| Cn1c(N2CCOCC2)nnc1C1(c2ccccc2)CC1 [Ex. 2-20] | < 10 nM |
| Cn1c(N2CCSCC2)nnc1C1(c2ccccc2)CC1 [Ex. 2-21] | < 10 nM |
| Cn1c(N2CCS(=O)(=O)CC2)nnc1C1(c2ccccc2)CC1 [Ex. 2-22] | 10 to 1000 nM |
| Cn1c(N2CC[S+]([O-])CC2)nnc1C1(c2ccccc2)CC1 [Ex. 2-23] | 10 to 1000 nM |
| Cn1c(N2CCc3ccccc3C2)nnc1C1(c2ccccc2)CC1 [Ex. 2-24] | < 10 nM |
| Cn1c(N2CCCc3ccccc32)nnc1C1(c2ccccc2)CC1 [Ex. 2-25] | < 10 nM |
| Cn1c(N2CCNCC2)nnc1C1(c2ccccc2)CC1 [Ex. 2-26] | 10 to 1000 nM |
| CC(=O)N1CCN(c2nnc(C3(c4ccccc4)CC3)n2C)CC1 [Ex. 2-27] | 10 to 1000 nM |
| Cn1c(N2CCC(Oc3ncc(Cl)cc3Cl)CC2)nnc1C1(c2ccc(Cl)cc2)CC1 [Ex. 2-29] | 10 to 1000 nM |
| Cn1c(N2CCC(Oc3ccccc3Cl)CC2)nnc1C1(c2ccccc2)CC1 [Ex. 2-30] | < 10 nM |
| Cn1c(N2CCC(Oc3ncc(Cl)cc3Cl)CC2)nnc1C1(c2ccc(F)cc2)CC1 [Ex. 2-31] | < 10 nM |
| Cn1c(N2CCC(O)CC2)nnc1C1(c2ccccc2)CC1 [Ex. 2-32] | < 10 nM |
| Cn1c(N2CCC(Nc3ncc(Cl)cc3Cl)CC2)nnc1C1(c2ccccc2)CC1 [Ex. 2-33] | 10 to 1000 nM |
| Cn1c(N2CCC(Cc3ccccc3)CC2)nnc1C1(c2ccccc2)CC1 [Ex. 2-34] | 10 to 1000 nM |
| Cn1c(N2CCC(Oc3ccc(Cl)cc3)CC2)nnc1C1(c2ccccc2)CC1 [Ex. 2-35] | < 10 nM |
| Cn1c(N2CCC(Oc3ccc(F)cc3Cl)CC2)nnc1C1(c2ccccc2)CC1 [Ex. 2-36] | < 10 nM |
| Cn1c(N2CCC(Oc3ncc(C(F)(F)F)cc3Cl)CC2)nnc1C1(c2ccccc2)CC1 [Ex. 2-37] | 10 to 1000 nM |
| Cn1c(N2CCC(Oc3ncccc3Cl)CC2)nnc1C1(c2ccccc2)CC1 [Ex. 2-38] | < 10 nM |
| Cn1c(N2CCC(Oc3ccc(Cl)cn3)CC2)nnc1C1(c2ccccc2)CC1 [Ex. 2-39] | < 10 nM |
| Cn1c(N2CCC(O)(c3ccccc3)CC2)nnc1C1(c2ccccc2)CC1 [Ex. 2-40] | 10 to 1000 nM |
| CN(c1ncc(Cl)cc1Cl)C1CCN(c2nnc(C3(c4ccccc4)CC3)n2C)CC1 [Ex. 2-41] | 10 to 1000 nM |
| COC1(c2ccccc2)CCN(c2nnc(C3(c4ccccc4)CC3)n2C)CC1 [Ex. 2-42] | 10 to 1000 nM |

| SMILES | IC50 |
| --- | --- |
| COC1CCN(c2nnc(C3(c4ccccc4)CC3)n2C)CC1 [Ex. 2-43] | 10 to 1000 nM |
| Cn1c(N2CCC(Oc3ccc(C(=O)O)cc3)CC2)nnc1C1(c2ccccc2)CC1 [Ex. 2-44] | 10 to 1000 nM |
| Cn1c(N2CCC(Oc3cccc(C(=O)O)c3)CC2)nnc1C1(c2ccccc2)CC1 [Ex. 2-45] | 10 to 1000 nM |
| Cn1c(N2CCC(Oc3ccccc3C(=O)O)CC2)nnc1C1(c2ccccc2)CC1 [Ex. 2-46] | 10 to 1000 nM |
| COC(=O)c1ccc(OC2CCN(c3nnc(C4(c5ccccc5)CC4)n3C)CC2)cc1 [Ex. 2-47] | 10 to 1000 nM |
| Cn1c(N2CCC(=O)CC2)nnc1C1(c2ccccc2)CC1 [Ex. 2-48] | < 10 nM |
| COC(=O)c1cccc(OC2CCN(c3nnc(C4(c5ccccc5)CC4)n3C)CC2)c1 [Ex. 2-49] | < 10 nM |
| COC(=O)c1ccccc1OC1CCN(c2nnc(C3(c4ccccc4)CC3)n2C)CC1 [Ex. 2-50] | 10 to 1000 nM |
| Cn1c(N2CCC(Oc3ccc(F)cc3)CC2)nnc1C1(c2ccccc2)CC1 [Ex. 2-51] | < 10 nM |
| Cn1c(N2CCC(Oc3ccc(C#N)cc3)CC2)nnc1C1(c2ccccc2)CC1 [Ex. 2-52] | < 10 nM |
| CC1CCN(c2nnc(C3(c4ccccc4)CC3)n2C)CC1 [Ex. 2-53] | < 10 nM |
| Cn1c(N2CCC(Oc3cccc(CO)c3)CC2)nnc1C1(c2ccccc2)CC1 [Ex. 2-54] | 10 to 1000 nM |
| Cn1c(N2CCC(Oc3cccc(C(N)=O)c3)CC2)nnc1C1(c2ccccc2)CC1 [Ex. 2-55] | 10 to 1000 nM |
| CNC(=O)c1cccc(OC2CCN(c3nnc(C4(c5ccccc5)CC4)n3C)CC2)c1 [Ex. 2-56] | 10 to 1000 nM |
| CN(C)C(=O)c1cccc(OC2CCN(c3nnc(C4(c5ccccc5)CC4)n3C)CC2)c1 [Ex. 2-57] | 10 to 1000 nM |
| Cn1c(N2CCC(C)(C)CC2)nnc1C1(c2ccccc2)CC1 [Ex. 2-58] | < 10 nM |
| Cn1c(N2CCC(C)(O)CC2)nnc1C1(c2ccccc2)CC1 [Ex. 2-59] | < 10 nM |
| Cn1c(N2CCC(C)(C)CC2)nnc1C1(c2ccc(F)cc2)CC1 [Ex. 2-60] | < 10 nM |
| Cn1c(N2CCC(CCO)CC2)nnc1C1(c2ccccc2)CC1 [Ex. 2-61] | < 10 nM |
| COC(=O)c1cc(OC2CCN(c3nnc(C4(c5ccccc5)CC4)n3C)CC2)ccc1Cl [Ex. 2-62] | 10 to 1000 nM |
| Cn1c(N2CCC(Oc3ccc(Cl)c(CO)c3)CC2)nnc1C1(c2ccccc2)CC1 [Ex. 2-63] | 10 to 1000 nM |
| Cn1c(N2CCC(Oc3ccc(Cl)c(C(=O)O)c3)CC2)nnc1C1(c2ccccc2)CC1 [Ex. 2-64] | 10 to 1000 nM |

| SMILES | IC50 |
| --- | --- |
| CC(C)C1CCN(c2nnc(C3(c4ccccc4)CC3)n2C)CC1 [Ex. 2-65] | < 10 nM |
| Cn1c(N2CCC(Oc3ccc(Cl)c(C(N)=O)c3)CC2)nnc1C1(c2ccccc2)CC1 [Ex. 2-66] | 10 to 1000 nM |
| COC(=O)C1(C)CCN(c2nnc(C3(c4ccccc4)CC3)n2C)CC1 [Ex. 2-67] | < 10 nM |
| Cn1c(N2CCC(C)(CO)CC2)nnc1C1(c2ccccc2)CC1 [Ex. 2-68] | < 10 nM |
| Cn1c(N2CCC(C)(C(=O)O)CC2)nnc1C1(c2ccccc2)CC1 [Ex. 2-69] | 10 to 1000 nM |
| Cn1c(N2CCC(C)(C(N)=O)CC2)nnc1C1(c2ccccc2)CC1 [Ex. 2-70] | < 10 nM |
| CCCn1c(N2CCC(Oc3ncc(Cl)cc3Cl)CC2)nnc1C1(c2ccccc2)CC1 [Ex. 2-71] | 10 to 1000 nM |
| COCCn1c(N2CCC(Oc3ncc(Cl)cc3Cl)CC2)nnc1C1(c2ccccc2)CC1 [Ex. 2-72] | 10 to 1000 nM |
| Cn1c(N2CCC(Oc3ccc(Cl)cc3Cl)CC2)nnc1C1(c2ccccc2)CC1 [Ex. 2-73] | < 10 nM |
| C=CCn1c(N2CCC(Oc3ncc(Cl)cc3Cl)CC2)nnc1C1(c2ccccc2)CC1 [Ex. 2-75] | < 10 nM |
| Clc1cnc(OC2CCN(c3nnc(C4(c5ccccc5)CC4)n3CC3CC3)CC2)c(Cl)c1 [Ex. 2-76] | < 10 nM |
| CC(C)Cn1c(N2CCC(Oc3ncc(Cl)cc3Cl)CC2)nnc1C1(c2ccccc2)CC1 [Ex. 2-77] | 10 to 1000 nM |
| Clc1cnc(OC2CCN(c3nnc(C4(c5ccccc5)CC4)n3C3CC3)CC2)c(Cl)c1 [Ex. 2-78] | < 10 nM |
| CCn1c(N2CCC(Oc3ncc(Cl)cc3Cl)CC2)nnc1C1(c2ccccc2)CC1 [Ex. 2-79] | < 10 nM |
| CC(C)n1c(N2CCC(Oc3ncc(Cl)cc3Cl)CC2)nnc1C1(c2ccccc2)CC1 [Ex. 2-80] | < 10 nM |
| Cn1c(N2CCC(Oc3ncc(Cl)cc3Cl)CC2)nnc1C1(c2ccccc2)CCCC1 [Ex. 2-81] | < 10 nM |
| Cc1ccc(C2(c3nnc(N4CCC(Oc5ncc(Cl)cc5Cl)CC4)n3C)CC2)cc1 [Ex. 2-82] | 10 to 1000 nM |
| COc1ccc(C2(c3nnc(N4CCC(Oc5ncc(Cl)cc5Cl)CC4)n3C)CC2)cc1 [Ex. 2-83] | 10 to 1000 nM |
| Cn1c(N2CCN(Cc3ccc(Cl)cc3Cl)CC2)nnc1C1(c2ccccc2)CC1 [Ex. 2-84] | 10 to 1000 nM |
| Cn1c(N2CCN(c3ccccc3Cl)CC2)nnc1C1(c2ccccc2)CC1 [Ex. 2-85] | < 10 nM |
| Cn1c(N2CCC(Oc3c(Cl)cncc3Cl)CC2)nnc1C1(c2ccccc2)CC1 [Ex. 2-86] | 10 to 1000 nM |
| Cn1c(N2CCC(Oc3ncc(Cl)cc3Cl)CC2)nnc1C1(c2ccc(Cl)cc2Cl)CC1 [Ex. 2-88] | 10 to 1000 nM |

From patent publication US8153631B2, “Triazole compounds and uses related thereto” (Amgen Inc., priority 2003, dated 2012)
